Three molecules from ChEMBL document CHEMBL1770133, “Design of potent and selective GPR119 agonists for type II diabetes” (Bioorg Med Chem Lett, 2011) can be followed below.

Series [1] in a line: Solubility of compound in PEG400 after 3 to 7 days. In kind it is physicochemical.
Series [2] concerns Mus musculus. In words: Antidiabetic activity in high fat fed po dosed C57BL/6 mouse assessed as change in AUC of blood glucose level administered 1 hr before glucose challenge measured up to 120 mins by oral glucose tolerance test. In kind it is functional. To be noted: C57BL6, Blood, read-out: MED.
For another series, the species on record is Canis familiaris. In words: Cardiotoxicity in dog assessed as QTc prolongation. In kind it is toxicity, organism-based, Canis lupus familiaris. To be noted: in vivo.
Series [3] has as its target T1, Glucose-dependent insulinotropic receptor (Homo sapiens, UniProt Q8TDV5).
T1 sequence (Q8TDV5 whole entry): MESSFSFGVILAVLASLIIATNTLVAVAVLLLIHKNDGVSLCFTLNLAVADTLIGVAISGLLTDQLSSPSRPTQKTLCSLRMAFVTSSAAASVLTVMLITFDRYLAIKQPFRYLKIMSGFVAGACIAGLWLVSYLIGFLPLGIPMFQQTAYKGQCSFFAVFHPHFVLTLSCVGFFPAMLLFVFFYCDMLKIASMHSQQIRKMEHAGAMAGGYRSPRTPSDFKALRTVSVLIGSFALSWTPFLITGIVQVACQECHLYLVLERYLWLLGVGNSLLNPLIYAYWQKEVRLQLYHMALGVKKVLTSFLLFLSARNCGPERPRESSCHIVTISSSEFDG
In words: Agonist activity at human GPR119 expressed in CHO cells co-expressing Galpha15 assessed as increase of intracellular cAMP accumulation after 60 mins by HTRF assay. In kind it is functional, cell-based. For orientation: cAMP levels reflect the balance of adenylyl cyclase and phosphodiesterase activity.

The target of series [4] is T2, Glucose-dependent insulinotropic receptor (Mus musculus, UniProt Q7TQP3).
T2 sequence (Q7TQP3 whole entry): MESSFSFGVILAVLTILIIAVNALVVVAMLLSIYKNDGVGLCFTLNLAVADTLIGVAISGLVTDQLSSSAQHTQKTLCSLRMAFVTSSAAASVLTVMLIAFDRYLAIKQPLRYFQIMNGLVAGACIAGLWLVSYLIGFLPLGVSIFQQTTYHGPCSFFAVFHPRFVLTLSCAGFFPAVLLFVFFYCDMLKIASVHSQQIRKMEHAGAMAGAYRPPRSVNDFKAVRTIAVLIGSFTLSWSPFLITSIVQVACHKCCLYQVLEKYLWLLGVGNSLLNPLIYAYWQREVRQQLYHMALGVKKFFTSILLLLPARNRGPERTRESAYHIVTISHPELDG
The experiment in a line: Agonist activity at mouse GPR119 expressed in CHO cells co-expressing Galpha15 assessed as increase of intracellular cAMP accumulation after 60 mins by HTRF assay. In kind it is functional, cell-based.

In series [5] the test system is Mus musculus. In words: Antidiabetic activity in high fat fed C57BL/6 mouse assessed as change in AUC of blood glucose level at 30 mg/kg, po qd administered 1 hr before glucose challenge measured up to 120 mins by oral glucose tolerance test relative to control. In kind it is functional, C57BL6.
The subject of series [6] is Mus musculus. The experiment in a line: Antidiabetic activity in high fat fed C57BL/6 mouse assessed as change in AUC of blood glucose level at 1 mg/kg, po qd administered 1 hr before glucose challenge measured up to 120 mins by oral glucose tolerance test relative to control. In kind it is functional, C57BL6.
For series [7], the system named is Mus musculus. The experiment in a line: Antidiabetic activity in high fat fed C57BL/6 mouse assessed as change in AUC of blood glucose level at 3 mg/kg, po qd administered 1 hr before glucose challenge measured up to 120 mins by oral glucose tolerance test relative to control. In kind it is functional, C57BL6.
Series [8] relates to Mus musculus. In words: Antidiabetic activity in high fat fed C57BL/6 mouse assessed as change in AUC of blood glucose level at 10 mg/kg, po qd administered 1 hr before glucose challenge measured up to 120 mins by oral glucose tolerance test relative to control. In kind it is functional, C57BL6.
Series [9] can be described thus: Volume of distribution at steady state in mouse at 1 mg/kg, iv and 10 mg/kg, po. In kind it is ADME, organism-based. Particulars: in vivo, read-out: Vdss.
A short description of series [10]: Half life in mouse at 1 mg/kg, iv and 10 mg/kg, po. In kind it is ADME, organism-based. Particulars: in vivo.
Series [11] deals with Mus musculus. The experiment in a line: Dose normalized AUC in mouse at 1 mg/kg, iv and 10 mg/kg, po. In kind it is ADME, organism-based. To be noted: in vivo.
The target in series [12] is Voltage-gated inwardly rectifying potassium channel KCNH2 (Homo sapiens, UniProt Q12809). In words: Inhibition of human ERG by patch clamp technique.
Chain of Voltage-gated inwardly rectifying potassium channel KCNH2 (Q12809 whole entry): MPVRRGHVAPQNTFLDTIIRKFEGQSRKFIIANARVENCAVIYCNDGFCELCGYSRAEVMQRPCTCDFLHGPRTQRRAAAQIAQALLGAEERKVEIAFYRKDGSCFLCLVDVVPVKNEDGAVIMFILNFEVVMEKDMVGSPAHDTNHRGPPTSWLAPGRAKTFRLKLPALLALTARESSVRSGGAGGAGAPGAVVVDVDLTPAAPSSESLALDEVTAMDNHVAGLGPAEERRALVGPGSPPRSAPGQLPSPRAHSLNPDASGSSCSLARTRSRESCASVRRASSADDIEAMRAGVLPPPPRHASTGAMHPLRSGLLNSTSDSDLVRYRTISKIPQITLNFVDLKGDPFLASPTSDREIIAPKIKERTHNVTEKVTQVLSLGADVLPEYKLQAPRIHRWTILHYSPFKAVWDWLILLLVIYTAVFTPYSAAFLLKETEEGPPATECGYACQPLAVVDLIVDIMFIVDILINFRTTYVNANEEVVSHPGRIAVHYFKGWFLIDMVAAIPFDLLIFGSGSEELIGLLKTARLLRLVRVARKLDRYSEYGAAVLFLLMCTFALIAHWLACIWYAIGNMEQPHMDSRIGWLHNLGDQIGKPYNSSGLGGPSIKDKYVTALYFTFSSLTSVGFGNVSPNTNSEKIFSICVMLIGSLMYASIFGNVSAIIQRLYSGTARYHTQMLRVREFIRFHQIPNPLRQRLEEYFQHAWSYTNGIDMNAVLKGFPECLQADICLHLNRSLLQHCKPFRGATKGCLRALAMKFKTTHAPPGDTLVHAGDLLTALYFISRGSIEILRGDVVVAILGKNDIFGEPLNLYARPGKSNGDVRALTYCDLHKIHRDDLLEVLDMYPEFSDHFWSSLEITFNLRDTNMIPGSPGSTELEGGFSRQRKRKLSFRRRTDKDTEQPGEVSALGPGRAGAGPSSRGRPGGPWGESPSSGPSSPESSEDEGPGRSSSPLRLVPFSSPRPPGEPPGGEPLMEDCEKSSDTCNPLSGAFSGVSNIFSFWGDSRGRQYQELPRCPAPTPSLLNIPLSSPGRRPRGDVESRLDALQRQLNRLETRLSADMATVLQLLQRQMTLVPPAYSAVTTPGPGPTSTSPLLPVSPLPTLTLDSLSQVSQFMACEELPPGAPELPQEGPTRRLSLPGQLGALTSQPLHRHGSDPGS
A short description of series [13]: Clearance in mouse at 1 mg/kg, iv and 10 mg/kg, po. In kind it is ADME, organism-based. To be noted: in vivo.

Converted amounts (≈) assume the structure as drawn.

In general, solubility refers to the concentration that dissolves in the medium under given conditions. For orientation: EC50 means the concentration that produces a half-maximal response. The molecule `Cc1cnc(N2CCC([C@H]3C[C@H]3CCOc3nc(C)cc(C#N)n3)CC2)nc1` gave a solubility in series [1] of 24.8 mg/mL (≈ 65.5 mM). In the series on Mus musculus [2], the minimal effective dose came to 0.01 mg/kg. In addition, the Activity result in the series filed under Canis familiaris is given as “Toxic”. The EC50 in series [3] and in series [4] was 2 nM in each case.

For the molecule `Cc1cnc(N2CCC(C3CCN(c4cc(C)nc(C#N)n4)CC3)CC2)cn1`, the Activity with Mus musculus [5] worked out at 35%; with Mus musculus [6], 7%; in the series on Mus musculus [7] it was 26%; in the series on Mus musculus [8], 30%. Moreover, the values for the EC50 in [3] and in [4] were 19 nM and 64 nM, respectively.

As usually defined, the half-life is the time needed for the level to fall by half in the phase considered. The low end stands for rapid decline, the high end for slow decline. As a reminder, the IC50 is the concentration that inhibits the measured activity by half. A low value points to inhibition by little substance. Take `CS(=O)(=O)c1ccc(OCC[C@@H]2C[C@@H]2C2CCN(c3ncc(Cl)cn3)CC2)nc1`: the Vd in series [9] was 2.1 L/kg. For the same molecule, the half-life in [10] is 12.4 h. This molecule also registered an AUC in the series with Mus musculus [11] of 12.1 µM·kg·h/mg. Also, in series [12], the IC50 was 19000 nM. For the same molecule, the solubility in [1] was determined as 7.1 mg/mL (≈ 16.2 mM). In addition, the minimal effective dose in the series with Mus musculus [2] stood at 1 mg/kg. Besides, the Activity result in the series filed under Canis familiaris is given as “Non-toxic”. Further, in series [13], the clearance was found to be 2.1 mL/min/kg. The EC50 in [3] and in [4] was 4 nM throughout.
